Laboratory results published in patent publication US10266526B2, “Substituted 1,2,3-triazoles as SMYD inhibitors for treating cancer” (EPIZYME, INC., priority 2014, dated 2019).
Where two headings read alike, the source gives them in different places.

How the values were obtained:
[1] = target: SMYD2 (Homo sapiens (Human), UniProt Q9NRG4); test: SMYD2 biochemical assay (SMYD2 enzyme assay on peptide substrate, 3H-SAM Flashplate)
Text: S-adenosylmethionine (SAM), S-adenosylhomocysteine (SAH), bicine, Tween20, dimethylsulfoxide (DMSO), bovine skin gelatin (BSG), and Tris(2-carboxyethyl)phosphine hydrochloride (TCEP) were purchased from Sigma-Aldrich at the highest level of purity possible. ^3H-SAM was purchase from American Radiolabeled Chemicals with a specific activity of 80 Ci/mmol. 384-well streptavidin Flashplates were purchased from PerkinElmer.
The sequence was [sequence](K-Biot)-amide.
Production of Recombinant SMYD2 Enzymes for Biochemical Enzyme Activity Assays
Full length SMYD2 (NP_064582.2) was cloned into a pFastbac-Htb-lic vector with an N-terminal His6 tag and FLAG tag, preceded by a TEV protease cleavage site. The protein was expressed in Sf9 insect cells. Cells were resuspended in lysis buffer (25 mM HEPES-NaOH, pH 7.5, 200 mM NaCl, 5% glycerol, and 5 mM (3-ME) and lysed by sonication. The protein was purified by Ni-NTA (Qiagen), followed by TEV cleavage to remove the His6 tag, subtractive Ni-NTA (Qiagen), and gel filtration chromatography using an S200 column (GE Healthcare). Purified protein was stored in 20 mM Tris-HCl, pH 8.0, 100 mM NaCl, and 1 mM TCEP.
General Procedure for SMYD2 Enzyme Assays on Peptide Substrates
The assays were all performed in a buffer consisting of 20 mM Bicine (pH=7.6), 1 mM TCEP, 0.005% Bovine Skin Gelatin, and 0.002% Tween20, prepared on the day of use. […] DMSO (1 ul) was added to Columns 11, 12, 23, 24, rows A-H for the maximum signal control and 1 ul of SAH, a known product and inhibitor of SMYD2, was added to columns 11, 12, 23, 24, rows I-P for the minimum signal control. A cocktail (40 ul) containing the SMYD2 enzyme was added by Multidrop Combi (Thermo-Fisher). The compounds were allowed to incubate with SMYD2 for 30 min at room temperature, then a cocktail (10 ul) containing ^3H-SAM and peptide was added to initiate the reaction (final volume=51 ul). […] The assays were stopped by the addition of non-radioactive SAM (10 ul) to a final concentration of 600 uM, which dilutes the ^3H-SAM to a level where its incorporation into the peptide substrate is no longer detectable. 50 ul of the reaction in the 384-well polypropylene plate was then transferred to a 384-well Flashplate and the biotinylated peptides were allowed to bind to the streptavidin surface for at least 1 hour before being washed three times with 0.1% Tween20 in a Biotek ELx405 plate washer. The plates were then read in a PerkinElmer TopCount plate reader to measure the quantity of ^3H-labeled peptide bound to the Flashplate surface, measured as disintegrations per minute (dpm) or alternatively, referred to as counts per minute (cpm).
Where dpm=disintegrations per minute, cmpd=signal in assay well, and min and max are the respective minimum and maximum signal controls.
Where top and bottom are the normally allowed to float, but may be fixed at 100 or 0 respectively in a 3-parameter fit. The Hill Coefficient normally allowed to float but may also be fixed at 1 in a 3-parameter fit. I is the compound concentration.

[2] = target: SMYD3 (Homo sapiens (Human), UniProt Q9H7B4); test: SMYD3 biochemical assay (SMYD3 enzyme assay on MEKK2 protein substrate, 3H-SAM scintillation proximity assay)
Summary of the method: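 Native full-length human SMYD3, expressed in E. coli, was preincubated with compound for 30 min at room temperature in 25 mM Tris-Cl pH 8.0, 1 mM TCEP, 0.005% BSG and 0.005% Tween 20. ³H-SAM plus GST-MEKK2 then started the reaction. It was stopped with unlabeled SAM (100 uM final), and methylated MEKK2 was read by SPA.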

[3] = read-out: SMYD2 Biochem IC50, IC50 values are an average of n = 1 to n = 50

Chain of SMYD2 (Q9NRG4 whole entry): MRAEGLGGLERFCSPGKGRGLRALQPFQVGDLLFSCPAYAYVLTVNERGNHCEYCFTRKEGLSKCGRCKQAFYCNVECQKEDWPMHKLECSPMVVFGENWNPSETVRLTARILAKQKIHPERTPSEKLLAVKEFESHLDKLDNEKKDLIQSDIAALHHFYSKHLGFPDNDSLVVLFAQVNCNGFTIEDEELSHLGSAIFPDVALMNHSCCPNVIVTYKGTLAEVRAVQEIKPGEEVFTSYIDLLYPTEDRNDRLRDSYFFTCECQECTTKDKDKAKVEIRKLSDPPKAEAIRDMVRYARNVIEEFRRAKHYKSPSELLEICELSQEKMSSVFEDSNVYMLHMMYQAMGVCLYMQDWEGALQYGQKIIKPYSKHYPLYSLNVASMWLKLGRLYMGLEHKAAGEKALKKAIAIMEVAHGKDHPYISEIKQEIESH
Chain of SMYD3 (Q9H7B4 whole entry): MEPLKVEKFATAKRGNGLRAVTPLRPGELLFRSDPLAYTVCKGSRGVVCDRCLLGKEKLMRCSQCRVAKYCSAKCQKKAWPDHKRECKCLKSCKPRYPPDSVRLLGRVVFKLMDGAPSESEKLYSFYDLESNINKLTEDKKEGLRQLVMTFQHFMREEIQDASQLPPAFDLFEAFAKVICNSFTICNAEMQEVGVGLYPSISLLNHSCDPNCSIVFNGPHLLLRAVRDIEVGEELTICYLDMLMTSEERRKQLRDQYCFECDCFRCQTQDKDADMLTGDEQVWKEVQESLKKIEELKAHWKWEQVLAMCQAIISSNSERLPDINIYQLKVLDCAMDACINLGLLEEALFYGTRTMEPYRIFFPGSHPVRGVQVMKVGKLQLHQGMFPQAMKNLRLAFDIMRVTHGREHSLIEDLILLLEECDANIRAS

Row | IC50 [1, 3] | Structure (SMILES) | also measured
1 | 516 nM | C[C@@H](c1ccccc1)N1CC(NC(=O)c2cc(C3CC3)cnn2)C1 [compound 646, 5-cyclopropyl-N-{1-[(1S)-1-phenylethyl]azetidin-3-yl}pyridazine-3-carboxamide] | –
2 | 2000 nM | O=C(NC1CN(CC2CC2)C1)c1cn(C2CC2)nn1 [compound 665, 1-cyclopropyl-N-[1-(cyclopropylmethyl)azetidin-3-yl]-1H-1,2,3-triazole-4-carboxamide] | –
3 | 488 nM | CC(c1cccc(Cl)c1Cl)N1CC(NC(=O)c2cn(C3CC3)nn2)C1 (centres unmarked) [compound 743, 1-cyclopropyl-N-{1-[1-(2,3-dichlorophenyl)ethyl]azetidin-3-yl}-1H-1,2,3-triazole-4-carboxamide] | –
4 | 1450 nM | COc1cccc(C(C)N2CC(NC(=O)c3cn(C4CC4)nn3)C2)c1 (centres unmarked) [compound 679, 1-cyclopropyl-N-{1-[1-(3-methoxyphenyl)ethyl]azetidin-3-yl}-1H-1,2,3-triazole-4-carboxamide] | –
5 | 807 nM | CC(c1ccc2c(c1)OCO2)N1CC(NC(=O)c2cn(C3CC3)nn2)C1 (centres unmarked) [compound 691, N-{1-[1-(2H-1,3-benzodioxol-5-yl)ethyl]azetidin-3-yl}-1-cyclopropyl-1H-1,2,3-triazole-4-carboxamide] | –
6 | > 50000 nM | CN(C)CCCN1CC(NC(=O)c2cn(C3CC3)nn2)C1 [compound 708, 1-cyclopropyl-N-{1-[3-(dimethylamino)propyl]azetidin-3-yl}-1H-1,2,3-triazole-4-carboxamide] | –
7 | 4300 nM | CC(c1ccc(OCC2CCNCC2)cc1)N1CC(NC(=O)c2cn(C3CC3)nn2)C1 (centres unmarked) [compound 925, 1-cyclopropyl-N-(1-(1-(4-(piperidin-4-ylmethoxy)phenyl)ethyl)azetidin-3-yl)-1H-1,2,3-triazole-4-carboxamide] | –
8 | – | C[C@H](c1cccc(OCCO)c1Cl)N1CC(NC(=O)c2cn(C3CC3)nn2)C1 (single isomer, unassigned) [compound 832] | IC50 [1]: 14300 nM
9 | 391 nM | CN1CC(NC(=O)c2cc(C3CC3)cnn2)C1 [compound 825, 5-cyclopropyl-N-(1-methylazetidin-3-yl)pyridazine-3-carboxamide] | –
10 | 19000 nM | CC(NC(=O)c1cc(C2CC2)cnn1)C1CCCCN1 (centres unmarked) [compound 1003, 5-cyclopropyl-N-(1-(piperidin-2-yl)ethyl)pyridazine-3-carboxamide] | –
11 | 72 nM | COc1cccc(C(C)N2CC(NC(=O)c3cc(C4CC4)cnn3)C2)c1Cl (centres unmarked) [compound 965, N-(1-(1-(2-chloro-3-memoxyphenyl)ethyl)azetidin-3-yl)-5-cyclopropylpyridazine-3-carboxamide] | –
12 | 1520 nM | O=C(NC1CN(C(c2ccccc2)C2CCC2)C1)c1cn(C2CC2)nn1 (centres unmarked) [compound 731, N-{1-[cyclobutyl(phenyl)methyl]azetidin-3-yl}-1-cyclopropyl-1H-1,2,3-triazole-4-carboxamide] | –
13 | 102 nM | CC(c1ccc(OCc2ccccc2)cc1Cl)N1CC(NC(=O)c2cn(C3CC3)nn2)C1 (centres unmarked) [compound 817, N-(1-{1-[4-(benzyloxy)-2-chlorophenyl]ethyl}azetidin-3-yl)-1-cyclopropyl-1H-1,2,3-triazole-4-carboxamide] | –
14 | 1220 nM | Cn1cc(CN2CC(NC(=O)c3cn(C4CC4)nn3)C2)c(Cl)n1 [compound 811, N-{1-[(3-chloro-1-methyl-1H-pyrazol-4-yl)methyl]azetidin-3-yl}-1-cyclopropyl-1H-1,2,3-triazole-4-carboxamide] | –
15 | 1100 nM | CC(O)COc1cccc(C(C)N2CC(NC(=O)c3cn(C4CC4)nn3)C2)c1Cl (centres unmarked) [compound 978, N-(1-(1-(2-chloro-3-(2-hydroxypropoxy)phenyl)ethyl)azetidin-3-yl)-1-cyclopropyl-1H-1,2,3-triazole-4-carboxamide] | –
16 | 920 nM | O=C(NC1CN(Cc2cnn(Cc3ncco3)c2)C1)c1cn(C2CC2)nn1 [compound 944, 1-cyclopropyl-N-(1-((1-(oxazol-2-ylmethyl)-1H-pyrazol-4-yl)methyl)azetidin-3-yl)-1H-1,2,3-triazole-4-carboxamide] | –
17 | 8030 nM | COCCOc1cccc(CN2CC(NC(=O)c3cn(C4CC4)nn3)C2)c1 [compound 701, 1-cyclopropyl-N-(1-{[3-(2-methoxyethoxy)phenyl]methyl}azetidin-3-yl)-1H-1,2,3-triazole-4-carboxamide] | –
18 | 2750 nM | CC(C)CN1CC(NC(=O)c2cn(C3CC3)nn2)C1 [compound 668, 1-cyclopropyl-N-[1-(2-methylpropyl)azetidin-3-yl]-1H-1,2,3-triazole-4-carboxamide] | –
19 | 2000 nM | CC(c1ccc(OCCN(C)C)cc1)N1CC(NC(=O)c2cn(C3CC3)nn2)C1 (centres unmarked) [compound 959, 1-cyclopropyl-N-(1-(1-(4-(2-(dimethylamino)ethoxy)phenyl)ethyl)azetidin-3-yl)-1H-1,2,3-triazole-4-carboxamide] | –

Row | IC50 [1, 3] | Structure (SMILES) | also measured
20 | 846 nM | CC(C)N1CC(NC(=O)c2cn(C3CC3)nn2)C1 [compound 662, 1-cyclopropyl-N-[1-(propan-2-yl)azetidin-3-yl]-1H-1,2,3-triazole-4-carboxamide] | –
21 | 776 nM | CC(c1ccc(OCCc2ccccc2)cc1)N1CC(NC(=O)c2cn(C3CC3)nn2)C1 (centres unmarked) [compound 853, 1-cyclopropyl-N-(1-{1-[4-(2-phenylethoxy)phenyl]ethyl}azetidin-3-yl)-1H-1,2,3-triazole-4-carboxamide] | –
22 | > 50000 nM | O=C(NC1CN(C(c2ccc(OCc3ccccc3)cc2)C(F)(F)F)C1)c1cn(C2CC2)nn1 (centres unmarked) [compound 816, N-(1-{1-[4-(benzyloxy)phenyl]-2,2,2-trifluoroethyl}azetidin-3-yl)-1-cyclopropyl-1H-1,2,3-triazole-4-carboxamide] | –
23 | 2070 nM | COCCOc1ccc(CN2CC(NC(=O)c3cn(C4CC4)nn3)C2)cc1 [compound 830, 1-cyclopropyl-N-(1-{[4-(2-methoxyethoxy)phenyl]methyl}azetidin-3-yl)-1H-1,2,3-triazole-4-carboxamide] | –
24 | 950 nM | CC(=O)Nc1ccc(COc2ccc(C(C)N3CC(NC(=O)c4cn(C5CC5)nn4)C3)cc2)cc1 (centres unmarked) [compound 1020, N-(1-(1-(4-((4-acetamidobenzyl)oxy)phenyl)ethyl)azetidin-3-yl)-1-cyclopropyl-1H-1,2,3-triazole-4-carboxamide] | –
25 | 6960 nM | O=C(NC1CN(C2CCc3cc(F)ccc32)C1)c1cn(C2CC2)nn1 (centres unmarked) [compound 740, 1-cyclopropyl-N-[1-(5-fluoro-2,3-dihydro-1H-inden-1-yl)azetidin-3-yl]-1H-1,2,3-triazole-4-carboxamide] | –
26 | 16.4 nM | O=C(NC1CN(Cc2cnn(Cc3ccccc3)c2)C1)c1cn(C2CC2)nn1 [compound 792, N-{1-[(1-benzyl-1H-pyrazol-4-yl)methyl]azetidin-3-yl}-1-cyclopropyl-1H-1,2,3-triazole-4-carboxamide] | –
27 | 2790 nM | COc1ccc(Cl)cc1C(C)N1CC(NC(=O)c2cn(C3CC3)nn2)C1 (centres unmarked) [compound 860, N-{1-[1-(5-chloro-2-methoxyphenyl)ethyl]azetidin-3-yl}-1-cyclopropyl-1H-1,2,3-triazole-4-carboxamide] | –
28 | 4190 nM | CC(C)N1CC(NC(=O)c2cn(C3CC3(F)F)nn2)C1 (centres unmarked) [compound 770, 1-(2,2-difluorocyclopropyl)-N-[1-(propan-2-yl)azetidin-3-yl]-1H-1,2,3-triazole-4-carboxamide] | –
29 | 5400 nM | CNCCOc1cccc(C(C)N2CC(NC(=O)c3cn(C4CC4)nn3)C2)c1Cl (centres unmarked) [compound 975, N-(1-(1-(2-chloro-3-(2-(methylamino)ethoxy)phenyl)ethyl)azetidin-3-yl)-1-cyclopropyl-1H-1,2,3-triazole-4-carboxamide] | –
30 | 5400 nM | CC(c1ccc(=O)[nH]c1)N1CC(NC(=O)c2cn(C3CC3)nn2)C1 (centres unmarked) [compound 994, 1-cyclopropyl-N-(1-(1-(6-oxo-1,6-dihydropyridin-3-yl)ethyl)azetidin-3-yl)-1H-1,2,3-triazole-4-carboxamide] | –
31 | > 50000 nM | O=C(NC1CN(C(c2ccccc2)C(F)(F)F)C1)c1cn(C2CC2)nn1 (centres unmarked) [compound 766, 1-cyclopropyl-N-[1-(2,2,2-trifluoro-1-phenylethyl)azetidin-3-yl]-1H-1,2,3-triazole-4-carboxamide] | –
32 | 7970 nM | COc1cccc2c1C(N1CC(NC(=O)c3cn(C4CC4)nn3)C1)CC2 (centres unmarked) [compound 762, 1-cyclopropyl-N-[1-(7-methoxy-2,3-dihydro-1H-inden-1-yl)azetidin-3-yl]-1H-1,2,3-triazole-4-carboxamide] | –
33 | 6060 nM | O=C(NC1CN(CC2COC2)C1)c1cn(C2CC2)nn1 [compound 666, 1-cyclopropyl-N-[1-(oxetan-3-ylmethyl)azetidin-3-yl]-1H-1,2,3-triazole-4-carboxamide] | –
34 | 73 nM | O=C(NC1CN(Cc2cnn(Cc3ccccc3)c2)C1)c1cn(C2CC2)cn1 [compound 1022, N-(1-((1-benzyl-1H-pyrazol-4-yl)methyl)azetidin-3-yl)-1-cyclopropyl-1H-imidazole-4-carboxamide] | –
35 | 65 nM | O=C(NC1CN(Cc2cnn(Cc3ccccc3)c2)C1)c1nnc(C2CC2)o1 [compound 1021, N-(1-((1-benzyl-1H-pyrazol-4-yl)methyl)azetidin-3-yl)-5-cyclopropyl-1,3,4-oxadiazole-2-carboxamide] | –
36 | – | N[C@H]1CC[C@H](NC(=O)c2ccc3c(c2)OCO3)CC1 [compound 148, N-((1r,4r)-4-aminocyclohexyl)benzo[d][1,3]dioxole-5-carboxamide] | IC50 ([2]; read-out: SMYD3 Biochem IC50 (μM)*): > 100 µM
37 | – | N[C@H]1CC[C@H](NC(=O)c2ccc(O)cn2)CC1 [compound 423, N-((1r,4r)-4-aminocyclohexyl)-5-hydroxypicolinamide] | IC50 ([2]; read-out: SMYD3 Biochem IC50): > 100 µM
38 | – | N[C@H]1CC[C@H](NC(=O)c2cc3cccc(O)c3cc2O)CC1 [compound 460, N-((1r,4r)-4-aminocyclohexyl)-3,5-dihydroxy-2-naphthamide] | IC50 ([2]; read-out: SMYD3 Biochem IC50): 20.7 µM
